Laboratory results taken from patent US12534444B2, “Treatment of cancer/inhibition of metastasis” (Celex Oncology Innovations Limited, priority 2010, dated 2026).

System: MDA-MB-231 cells
Experiment: Single-cell adhesion assay (SCAMA, detachment negative pressure)
Format: cell-based, human
Details: 24 hours
Experimental: FIG. 4 is a schematic illustration of the single-cell adhesion measurement apparatus (SCAMA) first described in the paper by Palmer et al. (2008). Human breast cancer cells from the MDA-MB-231 cell line were plated at a density of 2.5×10^4 cells/ml and left to settle in a cell culture dish 401 for 48 hours prior to measurements. Medium was removed and 2 ml of the drug under study was applied for 10 minutes. Adhesion was measured using a glass micropipette 402 connected to a vacuum pump 403 via plastic tubing 404. The tip of the micropipette was drawn to about 20 μm (range, 17-24 μm) tip diameter. The vacuum pump was used to create negative pressure inside a reservoir 405 so that the negative pressure could be applied to the tip of the micropipette by pressing the thumb to the open end of a sealable T-piece 406. […] The pressure was measured using a digital manometer 409 connected to a computer 410 via a RS232 cable 411. Using a micromanipulator 412, the micropipette 402 was positioned on the periphery of a single cell. […] The negative pressure required to detach the cell was recorded on the computer as a pressure spike. The peak of the spike (“detachment negative pressure” (DNP)) was used as a measure of the cell's adhesiveness. Using this technique, several recordings could be made from a single dish within minutes. […] In order to test for the reversibility of a given effect, the pharmacological agent was washed off, fresh medium was added and the plate was incubated for a further 10 minutes prior to re-measurement. Each treatment was carried out on at least two dishes of cells, at least 100 cells per dish were measured, and the experiment was repeated three times (with corresponding controls). In the single cell adhesion experiments, hypoxia was induced chemically by application of hydrogen peroxide (1-500 μM) for 24 hours.

OO [hydrogen peroxide]
mean detachment negative pressure (ΔDNP versus untreated control) (hydrogen peroxide 1 μM): approximately −9% | mean detachment negative pressure (ΔDNP versus untreated control) (hydrogen peroxide 10 μM): approximately −14% | mean detachment negative pressure (ΔDNP versus untreated control) (hydrogen peroxide 100 μM): approximately −20%
